Laboratory results reported in ChEMBL document CHEMBL1141624, “Discovery of small molecule benzimidazole antagonists of the chemokine receptor CXCR3” (Bioorg Med Chem Lett, 2008).
Values after ≈ are worked out from the molar mass of the structure shown.

What was measured:
[1] = molecular target: T1, C-X-C chemokine receptor type 3 (Homo sapiens, UniProt P49682); assay: Displacement of [125]CXCL10 from human CXCR3 expressed in CHO cells; type: cell-based
T1 sequence (P49682 whole entry): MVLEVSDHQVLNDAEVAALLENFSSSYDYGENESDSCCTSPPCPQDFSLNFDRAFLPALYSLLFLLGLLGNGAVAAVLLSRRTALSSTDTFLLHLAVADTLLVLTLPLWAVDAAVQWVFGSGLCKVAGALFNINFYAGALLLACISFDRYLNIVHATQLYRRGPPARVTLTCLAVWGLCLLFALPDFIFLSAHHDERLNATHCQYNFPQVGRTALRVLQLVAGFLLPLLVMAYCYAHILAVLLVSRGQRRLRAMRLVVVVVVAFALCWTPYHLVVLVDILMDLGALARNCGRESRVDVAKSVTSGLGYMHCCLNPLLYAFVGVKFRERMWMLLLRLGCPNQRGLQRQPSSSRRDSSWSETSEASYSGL

[2] = molecular target: T1, C-X-C chemokine receptor type 3; assay: Antagonist activity at human CXCR3 expressed in CHO cells by FLIPR-based calcium mobilization assay; type: functional, cell-based
[3] = Half life in SJL mouse at 20 mg/kg, po; type: ADME, organism-based; set-up: dose 20 mg/kg, route oral; settings: in vivo
[4] = Clearance in SJL mouse at 10 mg/kg, po and 5 mg/kg, iv; type: ADME, organism-based; settings: in vivo
[5] = Aqueous solubility of the compound; type: physicochemical; settings: buffer
[6] = system: Liver microsomes; assay: Stability in rat liver microsome; type: ADME
[7] = Protein binding in rat plasma; type: ADME, cell-free; settings: read-out: PPB (converted)
[8] = Bioavailability in SJL mouse at 20 mg/kg, po; type: ADME, organism-based; settings: in vivo

SMILES	IC50 [1]	further results
CCCc1cccc2c1n(C)c(=N)n2CC(=O)c1ccc(Cl)cc1	0.5 µM	IC50 [2]: 0.4 µM
Cc1cccc2c1n(C)c(=N)n2CC(=O)c1ccc(Cl)cc1	0.1 µM	half-life [3]: 4.9 h; clearance [4]: 95 mL/min/kg; solubility [5]: 79 µM (≈ 24.8 µg/mL); IC50 [2]: 0.08 µM; Stability [6]: 49%; fraction unbound [7]: 0.15; bioavailability [8]: 57%
Cn1c(=N)n(CC(=O)c2ccc(Cl)cc2)c2cccc(Cl)c21	0.3 µM	
Cn1c(=N)n(CC(=O)c2cccc(Cl)c2)c2ccccc21	16 µM	
Cn1c(=N)n(CC(=O)c2ccc(Cl)c(Cl)c2)c2ccccc21	4 µM	
Cn1c(=N)n(CC(=O)c2ccc(Cl)cc2)c2ccccc21	0.8 µM	solubility [5]: 84 µM (≈ 25.2 µg/mL); IC50 [2]: 9 µM
Cn1c(=N)n(CCc2ccc(Br)cc2)c2ccccc21	11 µM	
Cn1c(=N)n(C[S+]([O-])c2ccc(Cl)cc2)c2ccccc21 (stereo not given)	3 µM	
Cn1c(=N)n(CC(=O)c2ccc(Cl)cc2)c2cccc(C(F)(F)F)c21	0.7 µM	
Cn1c(=N)n(CC(O)c2ccc(Br)cc2)c2ccccc21 (stereo not given)	40 µM	
Cn1c(=N)n(CCCC(=O)c2ccc(Br)cc2)c2ccccc21	6 µM	
Cn1c(=N)n(CC(=O)c2ccccc2Cl)c2ccccc21	22 µM	
CC(=O)/N=c1/n(C)c2ccccc2n1CC(=O)c1ccc([N+](=O)[O-])cc1	50 µM	
C/N=c1/n(C)c2ccccc2n1CC(=O)c1ccc(Cl)cc1	0.8 µM	

The next lines start with results.

IC50 [1]	SMILES	further results
0.8 µM	Cn1c(=N)n(CC(=O)c2ccc(Br)cc2)c2ccccc21	
1 µM	Cc1ccc2c(c1)n(C)c(=N)n2CC(=O)c1ccc(Cl)cc1	IC50 [2]: 5 µM
0.03 µM	CCc1cccc2c1n(C)c(=N)n2CC(=O)c1ccc(Cl)cc1	IC50 [2]: 0.07 µM
11 µM	C[S+]([O-])c1nc2ccccc2n1CC(=O)c1ccc([N+](=O)[O-])cc1 (stereo not given)	
> 50 µM	CC(=O)c1nc2cc(-c3ccccc3)ccc2n1CC(=O)c1ccc(Br)cc1	
> 50 µM	COc1ccc2c(c1)nc(C(C)=O)n2CC(=O)c1ccc(Br)cc1	
> 50 µM	COc1ccc2nc(C(C)=O)n(CC(=O)c3ccc(Br)cc3)c2c1	
> 100 µM	CC(=O)c1nc2ccccc2n1CC(=O)c1ccccc1	
2 µM	CC(=O)c1nc2ccccc2n1CC(=O)c1ccc(Br)cc1	
0.8 µM	COc1cccc2c1n(C)c(=N)n2CC(=O)c1ccc(Br)cc1	
3 µM	CC(=O)c1nc2ccccc2n1CC(=O)c1ccc([N+](=O)[O-])cc1	solubility [5]: 4.5 µM (≈ 1.45 µg/mL)
1 µM	COCC/N=c1/n(C)c2ccccc2n1CC(=O)c1ccc(Br)cc1	
20 µM	CC(O)c1nc2ccccc2n1CC(=O)c1ccc([N+](=O)[O-])cc1 (stereo not given)	
8 µM	Cc1ccc2c(c1)n(CC(=O)c1ccc(Cl)cc1)c(=N)n2C	
> 100 µM	CC(=O)c1nc2ccccc2n1CC(=O)c1ccc(C#N)cc1	
8 µM	CC(=O)c1nc2ccccc2n1CC(=O)c1ccc(Cl)cc1	
3 µM	COc1cccc2c1nc(C(C)=O)n2CC(=O)c1ccc(Br)cc1	
> 50 µM	CC(=O)c1nc2ccc(-c3ccccc3)cc2n1CC(=O)c1ccc(Br)cc1	
